Data: publication PMC10057994, “Click Triazole as a Linker for Pretargeting Strategies: Synthesis, Docking Investigations, Fluorescence Diagnosis, and Antibacterial Action Studies” (Molecules, 2023)

Experiments:
RAW264.7 cell = experiment: MTT cell proliferation (cytotoxicity) assay; type: cell-based; conditions: for IC50: MTT, 36 h treatment
Protocol: The “click” reaction conditions in click chemistry require copper sulfate and sodium ascorbate as catalysts, and the copper sulfate concentration is generally too high, which causes certain damage to the body. RAW264.7 cells were used as test cells to explore the safe concentration of copper sulfate, compounds A1–A3, and probes T1–T4. The macrophage suspension of RAW264.7 cells in the logarithmic growth stage was adjusted to 5 × 10^4 cells/mL and seeded in 96-well plates with 100 µL in each well. The cells were incubated at 37 °C and 5% CO2 for 24 h and then treated with different concentrations of copper sulfate solution (each concentration was repeated three times). After being treated with copper sulfate for 36 h, 10 µL MTT (5 mg/mL) was added to each well, and the cells were incubated at 37 °C and 5% CO2 for 4 h. Then, the MTT in the well was discarded, and 100 µL DMSO was added to each well and incubated at 37 °C for 0.5 h until the crystals were completely dissolved. The microplate reader read the OD490 nm of each well. The cytotoxicity assays of compounds A1–A3 and probes T1–T4 were the same as above. The cell proliferation inhibition rate (IC50) was calculated using SPSS 16.0 software.

[1] = Fluorescence excitation and emission spectra; type: physicochemical
Protocol: (§1) The ^1H NMR and ^13C NMR spectra were recorded at 25 °C in a Nuclear Magnetic Resonance Spectrophotometer (DRX-400, Bruker, Bremerhaven, Germany) at 400 MHz for ^1H NMR in DMSO-d6 and 100 MHz for ^13C NMR in CDCl3. Thin layer chromatography (TLC) was carried out on silica gel (GF254, Qingdao Haiyang Chemical Co., Ltd., Qingdao, China), and the spots were visualized with UV light at 254 nm. Fluorescence spectra were recorded on a fluorescence spectrophotometer (F-2710, Hitachi, Tokyo, Japan). UV-Vis spectrophotometer (UH5300, Hitachi, Tokyo, Japan) was used for the absorption measurements and the spectra were typically measured in the range of 190–1100 nm.
The sample of probes (T1–T4) was diluted to 1 × 10^−5 mg/mL for fluorescence, excitation, and emission spectra measurement by a fluorescence spectrophotometer. All experiments were performed in triplicate.

[2] = test system: Agrobacterium tumefaciens; experiment: Fluorescence detection of Agrobacterium tumefaciens by diagnostic molecules (click in situ, fluorescence microscope); type: cell-based; conditions: inhibitor 8 h (A1 30, A2 50, A3 50 µmol/L), then same amount of probe, copper sulfate and sodium ascorbate, click 1 h; probe-only controls
Protocol: An amount of 3 mL of the standby Agrobacterium solution at a concentration of 5 × 10^3 CFU/mL was added to the shaker tube. Then, 200 µL of A1 at a concentration of 30 µmol/L, A2 at a concentration of 50 µmol/L, and A3 at a concentration of 50 µmol/L were added at 28 °C. After incubation at 200 RPM/min for 8 h, the upper layer of the medium was poured off after centrifugation and washed three times with PBS, and the bacterial solution was resuspended by adding 1 mL of medium. Then, the same amount of probe was added, and 15 µL copper sulfate and sodium ascorbate were added at a concentration of 10 µmol/L. The control group was treated with only the corresponding probe, and the concentration of each probe was the same as that of the corresponding inhibitor. After adding probes to each group, the “click” reaction was complete for 1 h. After centrifugation, the upper layer of the medium was poured off and washed three times with PBS. Then, 1 mL of the medium was added to resuspend the bacterial solution, and 10 µL was added to the slide for fluorescence microscope detection and observation of the fluorescence of Agrobacterium in each group.

[3] = test system: Agrobacterium tumefaciens; experiment: Antibacterial activity, LB plate microdilution test; type: cell-based; conditions: for antibacterial activity: cultured for 8 h
Protocol: The compounds A1–A3 were evaluated through the plate microdilution test according to the guidelines of the Clinical and Laboratory Standards Institute (CLSI). A colony of Agrobacterium tumefaciens grown on lysogeny broth (LB) agar plates was inoculated in lysogeny broth (LB) and incubated in an aerobic environment at 28 °C overnight (ON). The bacterial suspension was diluted to 5 × 10^7 CFU/mL, and 200 µL was added to each well, obtaining a final density of […]. Meanwhile, A1–A3 were serially diluted in 1X PBS at concentrations of 30, 50, and 100 µmol/L. Cefuroxime was used as an antibiotic control and DMSO as a solvent control. Subsequently, the plates were incubated at 28 °C in aerobiosis, and the growth rate was evaluated after 4, 6, 8, and 10 h using an ultraviolet (UV) detector.

[4] = UV-Vis absorption spectroscopy; type: physicochemical; conditions: in methanol
Protocol: as §1
The sample of the compounds (A1–A3) was diluted to 1 × 10^−5 mg/mL. After thorough mixing, the target molecules were detected using a UV spectrophotometer at UV absorption wavelengths. The volume of the sample needed to be greater than 2/3 of the cuvette volume. All experiments were performed in triplicate.

Compound | best emission wavelength [1] [nm] | best excitation wavelength [1] [nm] | absorption maxima (λmax) [4] [nm] | IC50 (RAW264.7 cell; Mus musculus) [µM] | other results
C#CCOc1ccc(/C=N/c2ccccc2O)c(O)c1 [T2, (E)-2-((2-hydroxyphenylimino)methyl)-5-(prop-2-ynyloxy)phenol] | 315 | 273 | – | > 92 | –
(E)-5-(3-azidopropoxy)-2-((2-hydroxyphenylimino)methyl)phenol [T4] | 313 | 272 | – | – | IC50 (RAW264.7 cell): > 87 µM; fluorescence of Agrobacterium tumefaciens [2]: did not emit fluorescence
C#CCOc1ccc(-c2nc3ccccc3s2)c(O)c1 [T3, 2-(benzo[d]thiazol-2-yl)-5-(prop-2-ynyloxy)phenol] | 377 | 327 | – | > 100 | fluorescence of Agrobacterium tumefaciens [2]: did not emit fluorescence; melting point: 179 to 180 °C
O=S(=O)([O-])[O-].[Cu+2] [copper sulfate] | – | – | – | – | cell survival rate (RAW264.7 cell; copper sulfate concentration 12 µmol/L): 80%
C#CCOc1ccc(O)c(C(=O)N/N=C/c2ccc(-c3ccccc3[N+](=O)[O-])o2)c1 [A1, (E)-2-hydroxy-N’-((5-(2-nitrophenyl)furan-2-yl)methylene)-5-(prop-2-ynyloxy)benzohydrazide] | – | – | 352 | > 98 | antibacterial activity ([3]; 30 µmol/L): 35%

The next lines start with results.

best emission wavelength [1] [nm] | best excitation wavelength [1] [nm] | absorption maxima (λmax) [4] [nm] | Compound | IC50 (RAW264.7 cell; Mus musculus) [µM] | other results
310 | 273 | – | [N-]=[N+]=NCCOc1ccc(/C=N/c2ccccc2OCc2ccccc2[N+](=O)[O-])c(O)c1 [T1, (E)-2-((2-(2-nitrobenzyloxy)phenylimino)methyl)-5-(2-azidoethoxy)phenol] | > 100 | –
– | – | 346 | [N-]=[N+]=NCCOc1ccc(O)c(C(=O)N/N=C/c2ccc(-c3ccccc3[N+](=O)[O-])o2)c1 [A3, (E)-5-(2-azidoethoxy)-2-hydroxy-N’-((5-(2-nitrophenyl)furan-2-yl)methylene)benzohydrazide] | > 100 | antibacterial activity ([3]; 50 µmol/L): 35%
– | – | 332 | C#CCNc1cccc(C(=O)N/N=C/c2ccc(-c3ccccc3[N+](=O)[O-])o2)c1 [A2, (E)-N’-((5-(2-nitrophenyl)furan-2-yl)methylene)-3-(prop-2-ynylamino)benzohydrazide] | > 96 | antibacterial activity ([3]; 50 µmol/L): 45%; antibacterial activity (in words) ([3]; Agrobacterium tumefaciens, 30-100 µmol/L, 4-10 h): better antibacterial activity than A1 and A3
